Source: ChEMBL document CHEMBL1201862, “PubChem BioAssay data set” (2004)
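Method: 48-hour compound exposure of cells in 96-well plates, five concentrations, linear interpolation of endpoints. GI50 is the concentration that inhibits growth by half.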 Calls of active or inactive are those of the source. Rule as the data show it: active = GI50 up to about 1.1 µM and inactive = higher.

Tests used:
Test in all cases: NCI-60 cell line screen, 48 h
786-0 = test system: 786-0
A498 = test system: A498
A549 = test system: A549
ACHN = test system: ACHN
CAKI-1 = test system: CAKI-1
CCRF-CEM = test system: CCRF-CEM
DLD-1 = test system: DLD-1
DMS-114 = test system: DMS-114
DMS-273 = test system: DMS-273
EKVX = test system: EKVX
HCC 2998 = test system: HCC 2998
HCT-116 = test system: HCT-116
HCT-15 = test system: HCT-15
HL-60 = test system: HL-60
HOP-18 = test system: HOP-18
HOP-62 = test system: HOP-62
HOP-92 = test system: HOP-92
HT-29 = test system: HT-29
IGROV-1 = test system: IGROV-1
K562 = test system: K562
KM-20L2 = test system: KM-20L2
KM12 = test system: KM12
LOX IMVI = test system: LOX IMVI
LXFL 529 = test system: LXFL 529
M14 = test system: M14
M19-MEL = test system: M19-MEL
MOLT-4 = test system: MOLT-4
Malme-3M = test system: Malme-3M
NCI-H226 = test system: NCI-H226
NCI-H23 = test system: NCI-H23
NCI-H460 = test system: NCI-H460
NCI-H522 = test system: NCI-H522
OVCAR-4 = test system: OVCAR-4
OVCAR-5 = test system: OVCAR-5
OVCAR-8 = test system: OVCAR-8
RPMI-8226 = test system: RPMI-8226
RXF 393 = test system: RXF 393
RXF 631 = test system: RXF 631
SF-268 = test system: SF-268
SF-295 = test system: SF-295
SF-539 = test system: SF-539
SK-MEL-28 = test system: SK-MEL-28
SK-MEL-2 = test system: SK-MEL-2
SK-MEL-5 = test system: SK-MEL-5
SK-OV-3 = test system: SK-OV-3
SN12C = test system: SN12C
SNB-19 = test system: SNB-19
SNB-75 = test system: SNB-75
SNB-78 = test system: SNB-78
SR = test system: SR
SW-620 = test system: SW-620
TK-10 = test system: TK-10
U-251 = test system: U-251
UACC-257 = test system: UACC-257
UACC-62 = test system: UACC-62
UO-31 = test system: UO-31
XF498 = test system: XF498
COLO 205 = test system: COLO 205
OVCAR-3 = test system: OVCAR-3
BT-549 = test system: BT-549
DU-145 = test system: DU-145
Hs-578T = test system: Hs-578T
MCF7 = test system: MCF7
MDA-MB-231 = test system: MDA-MB-231
MDA-MB-435 = test system: MDA-MB-435
MDA-N = test system: MDA-N
NCI/ADR-RES = test system: NCI/ADR-RES
PC-3 = test system: PC-3
T47D = test system: T47D

C1CCN(c2nc(=[N+]3CCCCC3)ss2)CC1
GI50 (786-0): > 100 µM (inactive)
GI50 (A498): > 100 µM (inactive)
GI50 (A549): 55.8 µM (inactive)
GI50 (ACHN): > 100 µM (inactive)
GI50 (CAKI-1): > 100 µM (inactive)
GI50 (CCRF-CEM): 43.7 µM (inactive)
GI50 (DLD-1): > 100 µM (inactive)
GI50 (DMS-114): 31.1 µM (inactive)
GI50 (DMS-273): > 100 µM (inactive)
GI50 (EKVX): > 100 µM (inactive)
GI50 (HCC 2998): > 100 µM (inactive)
GI50 (HCT-116): > 100 µM (inactive)
GI50 (HCT-15): > 100 µM
GI50 (HL-60): > 100 µM (inactive)
GI50 (HOP-18): > 100 µM (inactive)
GI50 (HOP-62): > 100 µM (inactive)
GI50 (HOP-92): > 100 µM (inactive)
GI50 (HT-29): > 100 µM (inactive)
GI50 (IGROV-1): > 100 µM (inactive)
GI50 (K562): 90.6 µM (inactive)
GI50 (KM-20L2): > 100 µM (inactive)
GI50 (KM12): 9.18 µM (inactive)
GI50 (LOX IMVI): 41.1 µM (inactive)
GI50 (LXFL 529): > 100 µM (inactive)
GI50 (M14): > 100 µM (inactive)
GI50 (M19-MEL): > 100 µM (inactive)
GI50 (MOLT-4): > 100 µM (inactive)
GI50 (Malme-3M): > 100 µM (inactive)
GI50 (NCI-H226): 19.1 µM (inactive)
GI50 (NCI-H23): 73.3 µM (inactive)
GI50 (NCI-H460): 48.8 µM (inactive)
GI50 (NCI-H522): > 100 µM (inactive)
GI50 (OVCAR-4): > 100 µM (inactive)
GI50 (OVCAR-5): > 100 µM (inactive)
GI50 (OVCAR-8): > 100 µM (inactive)
GI50 (RPMI-8226): > 100 µM (inactive)
GI50 (RXF 393): > 100 µM (inactive)
GI50 (RXF 631): > 100 µM (inactive)
GI50 (SF-268): 82 µM (inactive)
GI50 (SF-295): > 100 µM (inactive)
GI50 (SF-539): > 100 µM (inactive)
GI50 (SK-MEL-28): 84.9 µM (inactive)
GI50 (SK-MEL-2): > 100 µM (inactive)
GI50 (SK-MEL-5): > 100 µM (inactive)
GI50 (SK-OV-3): 71.9 µM (inactive)
GI50 (SN12C): > 100 µM (inactive)
GI50 (SNB-19): > 100 µM (inactive)
GI50 (SNB-75): > 100 µM (inactive)
GI50 (SNB-78): > 100 µM (inactive)
GI50 (SR): > 100 µM (inactive)
GI50 (SW-620): > 100 µM (inactive)
GI50 (TK-10): > 100 µM (inactive)
GI50 (U-251): 49.5 µM (inactive)
GI50 (UACC-257): > 100 µM (inactive)
GI50 (UACC-62): > 100 µM (inactive)
GI50 (UO-31): > 100 µM (inactive)
GI50 (XF498): > 100 µM (inactive)

COC1CCC2C(=O)CCCC2O1 (configuration not stated)
GI50 (786-0): > 100 µM (inactive)
GI50 (A498): > 100 µM (inactive)
GI50 (A549): > 100 µM (inactive)
GI50 (ACHN): > 100 µM (inactive)
GI50 (CAKI-1): > 100 µM (inactive)
GI50 (COLO 205): > 100 µM (inactive)
GI50 (DLD-1): > 100 µM (inactive)
GI50 (DMS-114): > 100 µM (inactive)
GI50 (DMS-273): > 100 µM (inactive)
GI50 (EKVX): > 100 µM (inactive)
GI50 (HCC 2998): > 100 µM (inactive)
GI50 (HCT-116): > 100 µM (inactive)
GI50 (HCT-15): > 100 µM
GI50 (HL-60): > 100 µM (inactive)
GI50 (HOP-18): > 100 µM (inactive)
GI50 (HOP-62): > 100 µM (inactive)
GI50 (HOP-92): > 100 µM (inactive)
GI50 (HT-29): > 100 µM (inactive)
GI50 (IGROV-1): > 100 µM (inactive)
GI50 (K562): > 100 µM (inactive)
GI50 (KM-20L2): > 100 µM (inactive)
GI50 (KM12): > 100 µM (inactive)
GI50 (LXFL 529): > 100 µM (inactive)
GI50 (M14): > 100 µM (inactive)
GI50 (M19-MEL): > 100 µM (inactive)
GI50 (MOLT-4): > 100 µM (inactive)
GI50 (Malme-3M): > 100 µM (inactive)
GI50 (NCI-H226): > 100 µM (inactive)
GI50 (NCI-H23): > 100 µM (inactive)
GI50 (NCI-H460): > 100 µM (inactive)
GI50 (NCI-H522): > 100 µM (inactive)
GI50 (OVCAR-3): > 100 µM (inactive)
GI50 (OVCAR-4): > 100 µM (inactive)
GI50 (OVCAR-5): > 100 µM (inactive)
GI50 (OVCAR-8): > 100 µM (inactive)
GI50 (RPMI-8226): > 100 µM (inactive)
GI50 (RXF 393): > 100 µM (inactive)
GI50 (RXF 631): > 100 µM (inactive)
GI50 (SF-268): > 100 µM (inactive)
GI50 (SF-295): > 100 µM (inactive)
GI50 (SF-539): > 100 µM (inactive)
GI50 (SK-MEL-2): > 100 µM (inactive)
GI50 (SK-MEL-5): > 100 µM (inactive)
GI50 (SK-OV-3): > 100 µM (inactive)
GI50 (SN12C): > 100 µM (inactive)
GI50 (SNB-19): > 100 µM (inactive)
GI50 (SNB-75): > 100 µM (inactive)
GI50 (SNB-78): > 100 µM (inactive)
GI50 (SR): > 100 µM (inactive)
GI50 (SW-620): > 100 µM (inactive)
GI50 (TK-10): > 100 µM (inactive)
GI50 (U-251): > 100 µM (inactive)
GI50 (UACC-257): > 100 µM (inactive)
GI50 (UACC-62): > 100 µM (inactive)
GI50 (UO-31): > 100 µM (inactive)
GI50 (XF498): > 100 µM (inactive)

CCCCCCCCCCCCCCCCCCN(C)CC(COP(=O)([O-])OCC[N+](C)(C)C)OC (configuration not stated)
GI50 (786-0): 6.89 µM (inactive)
GI50 (A498): 13.6 µM (inactive)
GI50 (A549): 22.8 µM (inactive)
GI50 (ACHN): 22.6 µM (inactive)
GI50 (BT-549): 38.5 µM (inactive)
GI50 (CAKI-1): 5.27 µM (inactive)
GI50 (CCRF-CEM): 5.4 µM (inactive)
GI50 (COLO 205): 2.91 µM (inactive)
GI50 (DLD-1): 5.14 µM (inactive)
GI50 (DMS-114): 6.76 µM (inactive)
GI50 (DMS-273): 1.95 µM (inactive)
GI50 (DU-145): 31.5 µM (inactive)
GI50 (EKVX): 26.9 µM (inactive)
GI50 (HCC 2998): 6.75 µM (inactive)
GI50 (HCT-116): 15.5 µM (inactive)
GI50 (HCT-15): 7.67 µM
GI50 (HL-60): 3.66 µM (inactive)
GI50 (HOP-18): 17.3 µM (inactive)
GI50 (HOP-62): 9.38 µM (inactive)
GI50 (HOP-92): 9.77 µM (inactive)
GI50 (HT-29): 4.94 µM (inactive)
GI50 (Hs-578T): > 46.1 µM (inactive)
GI50 (IGROV-1): 3.1 µM (inactive)
GI50 (K562): 18.8 µM (inactive)
GI50 (KM-20L2): 1.91 µM (inactive)
GI50 (KM12): 3.52 µM (inactive)
GI50 (LOX IMVI): 10 µM (inactive)
GI50 (LXFL 529): 8.67 µM (inactive)
GI50 (M14): 9.84 µM (inactive)
GI50 (M19-MEL): 4.21 µM (inactive)
GI50 (MCF7): 29.4 µM (inactive)
GI50 (MDA-MB-231): 57.1 µM (inactive)
GI50 (MDA-MB-435): > 46.9 µM (inactive)
GI50 (MDA-N): > 100 µM (inactive)
GI50 (MOLT-4): 3.94 µM (inactive)
GI50 (Malme-3M): 26.7 µM (inactive)
GI50 (NCI-H226): 16.5 µM (inactive)
GI50 (NCI-H23): 20.2 µM (inactive)
GI50 (NCI-H460): 4.25 µM (inactive)
GI50 (NCI-H522): 9.51 µM (inactive)
GI50 (NCI/ADR-RES): > 64 µM (inactive)
GI50 (OVCAR-3): 28.6 µM (inactive)
GI50 (OVCAR-4): 8.09 µM (inactive)
GI50 (OVCAR-5): 4.51 µM (inactive)
GI50 (OVCAR-8): 26.6 µM (inactive)
GI50 (PC-3): 18.1 µM (inactive)
GI50 (RPMI-8226): 6.03 µM (inactive)
GI50 (RXF 393): 3.4 µM (inactive)
GI50 (RXF 631): 16.2 µM (inactive)
GI50 (SF-268): 8.17 µM (inactive)
GI50 (SF-295): 7.83 µM (inactive)
GI50 (SF-539): 16.7 µM (inactive)
GI50 (SK-MEL-28): 38.3 µM (inactive)
GI50 (SK-MEL-2): 38.5 µM (inactive)
GI50 (SK-MEL-5): 27.9 µM (inactive)
GI50 (SK-OV-3): 14.1 µM (inactive)
GI50 (SN12C): 27.4 µM (inactive)
GI50 (SNB-19): 7.29 µM (inactive)
GI50 (SNB-75): 5.93 µM (inactive)
GI50 (SNB-78): 6.32 µM (inactive)
GI50 (SR): 2.44 µM (inactive)
GI50 (SW-620): 17.5 µM (inactive)
GI50 (T47D): > 80.7 µM (inactive)
GI50 (TK-10): 3.32 µM (inactive)
GI50 (U-251): 4.9 µM (inactive)
GI50 (UACC-257): 35.3 µM (inactive)
GI50 (UACC-62): 11.2 µM (inactive)
GI50 (UO-31): 29.5 µM (inactive)
GI50 (XF498): 14 µM (inactive)
